# Experimental data: patent US6461613B2, “Methods and compositions for the selective regulation of chorionic prostanoids” (priority 1993, dated 2002)
# Experiments:
# Format in all cases: cell-based
# human term placenta [1] = experiment: Effect of enzyme inhibitors on prostanoid release from perifused human term placental explants (RIA); settings: quinacrine 10 μM; for effect on PGFM release vs control / effect on TxB2 release vs control: EDTA 1 mM in perifusion medium; for effect on 6-keto-PGF1α release vs control / effect on PGE release vs control: EDTA 1 mM, NDGA 10 μM in perifusion medium
# Description: Radioimmunoassays were performed in a fashion similar to what has been previously described (Siler-Khodr et al., 1986, Biol. Reprod., 35:312) which is specifically incorporated herein for this purpose, with specific exception as noted below. A perifusion model (described in Examples 2 and 3) was employed to determine placental cell response. Media collected from the perifusion samples prepared from placental tissues were assayed. […] All the samples from a given perifusion (placenta) were determined in the same assay. At the beginning of the fifth hour of the perifusion, Medium 199 in the experimental chambers was changed to Medium 199 containing quinacrine (10 μM), EDTA (1 mM), NDGA (10 μM) or indomethacin (50 μg/ml). Four replicated chambers were perifused with control medium and each of the experimental media. This experimental design was repeated in three different perifusions using placental tissues from three different patients according to the procedure described in Example 3. […] Term placentas were obtained and placed on ice immediately after vaginal delivery from patients having spontaneous labor and delivery without any known obstetrical or medical complications. Tissues were obtained in accordance with a protocol approved by the Institutional Review Board. Within 30 minutes, the placental tissues were dissected of decidua, chorionic plates and large fetal vessels on ice. The placental tissues were cut into small fragments (approximately 25 pieces having a total weight of approximately 1 g), rinsed free of blood by repeated washing with ice cold normal saline until clear in color, and the tissue fragments placed in a 3-ml tissue chamber, placed in a 37° C. water bath. […] This medium is hereafter referred to as Medium 199. […] Perifusion was performed for two hours prior to initiation of sample collection. In this fashion, all tissues were thoroughly washed and equilibrated. Samples were collected hourly, beginning at the start of the third hour, into 12×75 mm glass tubes containing 0.1 ml indomethacin and 1100 μg/ml dimethyl sulfoxide [DMSO]. It took approximately one hour for the input medium to pass through the perifusion tubing and chamber and to be collected in the sample tube, thus the dead volume of the system was approximately 1 ml. Collection of the effluent of the 20 chambers was done simultaneously, using an ISCO fraction collector Retriever III adapted with a 20-tube rack and manifold. The prostanoid release for a given chamber was expressed as the increase over the fourth-hour prostanoid release for that chamber. Because there may be differences in the amounts of blood vessels and connective tissue among placental explants, the release expressed per unit weight results in high variance between chambers. […] Thus, the release of each chamber was related to its functional competence at the time of treatment rather than its mass. The mean release for replicate chambers from a given placenta for each particular prostanoid in the presence of arachidonic acid or each of the various enzyme inhibitors was calculated and then the mean data for each of the three different placentas was averaged at each time point. Thus, each placenta was weighted equally in the statistical analyses. Two-way analysis of variance of the average response for each prostanoid for each dose of arachidonic acid or each enzyme inhibitor studied, at each time point, was performed. The normalized data were tested for homogeneity using Cohrna's Q test, and no significant deviation was found. Thus, for each prostanoid and each treatment, where there was a significant main effect or interaction, Dunnett's comparison test was applied to determine the point(s) of significant difference as compared to the control. P<0.05 was considered to be statistically significant.
# human term placenta [2] = experiment: Effect of arachidonic acid on prostanoid release from perifused human term placental explants
# Description: Radioimmunoassays were performed in a fashion similar to what has been previously described (Siler-Khodr et al., 1986, Biol. Reprod., 35:312) which is specifically incorporated herein for this purpose, with specific exception as noted below. A perifusion model (described in Examples 2 and 3) was employed to determine placental cell response. Media collected from the perifusion samples prepared from placental tissues were assayed. After an initial pilot study of the prostanoid release of each of the perifusion placental tissue media samples collected hourly, samples from hours 3, 4, 5, 6, 8 and 12 of the perifusion were chosen for assay and for data analysis. All the samples from a given perifusion (placenta) were determined in the same assay.
# The effect of exogenous arachidonic acid on basal prostanoid release was studied by perifusing placental tissue from the beginning of the fifth hour of the perifusion, with Medium 199 containing arachidonic acid (0.2, 1.0 or 10 μg/ml). Arachidonic acid was dissolved in ethanol such that 0.02 ml ethanol per 100 ml of Medium 199 was needed to obtain these concentrations, and the resulting ethanol concentration was 0.02%. The control medium was also made to be 0.02% ethanol for valid comparison of the arachidonic acid parameter only. Four replicated chambers were perifused with control medium and each of the experimental arachidonic acid media. This experimental design was repeated using placental tissues from three different patients.
# Briefly, term placenta were obtained and placed on ice immediately after vaginal delivery from patients having spontaneous labor and delivery without any known obstetrical or medical complications. Tissues were obtained in accordance with a protocol approved by the Institutional Review Board. Within 30 minutes, the placental tissues were dissected of decidua, chorionic plates and large fetal vessels on ice. The placental tissues were cut into small fragments (approximately 25 pieces having a total weight of approximately 1 g), rinsed free of blood by repeated washing with ice cold normal saline until clear in color, and the tissue fragments placed in a 3-ml tissue chamber, placed in a 37° C. water bath. Twenty replicate chambers were prepared and each perifused with Medium 199 containing 0.05% BSA, 100 U penicillin and 100 μg streptomycin per ml at a rate of 1 ml per hour for 12 hours. This medium is hereafter referred to as Medium 199. The influx medium was aerated with 95% air and 5% CO2 throughout the perifusion. Perifusion was performed for two hours prior to initiation of sample collection. In this fashion, all tissues were thoroughly washed and equilibrated. Samples were collected hourly, beginning at the start of the third hour, into 12×75 mm glass tubes containing 0.1 ml indomethacin and 1100 μg/ml dimethyl sulfoxide [DMSO]. It took approximately one hour for the input medium to pass through the perifusion tubing and chamber and to be collected in the sample tube, thus the dead volume of the system was approximately 1 ml. Collection of the effluent of the 20 chambers was done simultaneously, using an ISCO fraction collector Retriever III adapted with a 20-tube rack and manifold.
# The prostanoid release for a given chamber was expressed as the increase over the fourth-hour prostanoid release for that chamber. Because there may be differences in the amounts of blood vessels and connective tissue among placental explants, the release expressed per unit weight results in high variance between chambers. […] Thus, the release of each chamber was related to its functional competence at the time of treatment rather than its mass.
# The mean release for replicate chambers from a given placenta for each particular prostanoid in the presence of arachidonic acid or each of the various enzyme inhibitors was calculated and then the mean data for each of the three different placentas was averaged at each time point. […]
# human term placenta [3] = experiment: IGF-I effect on prostanoid and hCG release from perifused human term placental explants
# Description: Term placentas were obtained and processed as described herein. Seven replicate chambers were prepared and each perifused with Medium 199 containing 0.05% BSA, penicillin (100 U/ml), streptomycin (100 μg/ml), estradiol (200 ng/ml), progesterone (2000 ng/ml), dexamethasone (10^−8 M), and insulin (100 μU/ml), at a rate of 6 ml/hour for 10.5 hours. Steroids were first dissolved in ethanol at 10^−4M final concentration and taken to final dilution with BSA-containing medium. This medium is hereafter referred to as Medium 199. These concentrations of steroid were chosen because they are known by those in the obstetrical arts to simulate the intrauterine milieu in vivo in humans. The influx medium was aerated with 95% air and 5% CO2 throughout the perifusion. Perifusion at a rate of 6 ml/hr was performed for […] prior to initiation of sample collection. In this fashion, all tissues were thoroughly washed and equilibrated. Samples were collected every half-hour, beginning at the start of the fourth hour, into 12×75 mm glass tubes containing 0.1 ml indomethacin (1100 μg/ml dimethyl sulfoxide [DMSO]). Collection of the effluent of the seven chambers was done simultaneously, using an ISCO fraction collector Retriever III adapted with a rack having seven tubes and a manifold.
# To study the effect of IGF-I on basal prostanoid release, ten minutes prior to the beginning of the fifth hour of the perifusion, Medium 199 in the experimental chambers was changed to Medium 199 containing IGF-I (10^−8 M). This dose of IGF-I was chosen from calculations of the inventor using the Km of the placental receptor for IGF-I. It took ten minutes for the input medium to pass through the perifusion tubing and chamber and to be collected in the sample tube. Three replicated chambers were perifused with experimental medium, whereas, in another four replicated chambers, the perifusion was continued with the control, Medium 199. This experimental design was repeated using placental tissues from three different patients each having a normal pregnancy.
# Prostanoid recovery and stability was determined as described in Example 1. Prostanoid radioimmunoassay was also conducted as described in Example 1.
# Hormonal values for a given chamber were normalized to the fifth-hour prostanoid or hCG release for that chamber, expressed as a percent release over the fifth-hour release. Because there may be differences in the amount of blood vessels and connective tissue among placental explants, the release expressed per unit weight results in high variance between chambers. […] Thus, the release of each chamber was related to its functional competence at the time of treatment rather than to its mass. The mean release for replicate chambers from a given placenta for each particular hormone in the presence of IGF-I at each time point was calculated and the mean data for each of the three different placentas were averaged at each time point. Thus, each placenta was weighed equally in the statistical analyses. Similar calculations were done for the controls as for the experimental chambers. For each hormone studied, these average normalized data were tested for homogeneity, using Bartlett's test, and if significant deviation was found, the data were log-transformed prior to statistical analysis. Two-way analysis of variance was used to determine if there was significant main effect or interaction.
# In addition, the cumulative release for each hormone from each placenta for each treatment was calculated. One-way analysis of variance was used to test for statistical effects of treatment. The points of significant variation were determined using the Student-Newman-Keuls test.
# human term placenta [4] = experiment: Dose-related action of IGF-I on basal prostanoid production from perifused human term placenta
# Description: The dose-related effect of IGF-I on placental prostanoids was studied with the perifusion system previously described herein. Normal term deliveries were perifused with a defined Medium 199 containing no phenol red nor exogenous hormonal factors other than 100μU/ml of insulin, estradiol (200 ng/ml), progesterone (4000 ng/ml) and dexamethasone (10^−8). These doses were chosen to emulate the normal term placental environment. Replicate chambers for the control (n=4) and treatment (n=3) explants for each placenta were made. Following a five-hour perifusion at 6 ml/hr with basal media, IGF-I (5, 10, 20, 40 or 80 ng/ml) was added to the triplicate chambers and sample collection continued every 30 minutes for another five hours. The average hormonal response for the replicate chambers of the control and the IGF-I treated explants was calculated and then the mean (±SEM) response for the different placentas with and without treatment was computed and the results compared. […] TxB2 was inhibited at even 10 ng/ml of IGF-I.
# [5] = arachidonic acid 10 μg/ml, within three hours of exposure
molecule,measurement,setting,value
"O=C(O)CN(CCN(CC(=O)O)CC(=O)O)CC(=O)O [EDTA, ethylene diamino tetraacetic acid]",effect on PGFM release vs control,human term placenta [1],did not reduce
same,effect on TxB2 release vs control,human term placenta [1],did not reduce
same,effect on 6-keto-PGF1α release vs control,human term placenta [1],significant inhibition
same,effect on PGE release vs control,human term placenta [1],did not reduce
"CC(Cc1ccc(O)c(O)c1)C(C)Cc1ccc(O)c(O)c1 (centres unmarked) [NDGA, nordihydroguaiaretic acid]",effect on 6-keto-PGF1α release vs control,human term placenta [1],significant inhibition
same,effect on PGE release vs control,human term placenta [1],inhibited
CCCCC/C=C\C/C=C\C/C=C\C/C=C\CCCC(=O)O [arachidonic acid],effect on prostanoid production,human term placenta [2]; arachidonic acid 0.2 μg/ml,no significant effect
same,effect on prostanoid production,human term placenta [2]; arachidonic acid 1.0 μg/ml,no significant effect
same,effect on PGE release,human term placenta [2]; [5],significant increase
same,effect on PGF release,human term placenta [2]; [5],significant increase
same,effect on 6-keto-PGF1α,human term placenta [2]; arachidonic acid 0.2-10 μg/ml,no significant effect
same,effect on PGFM,human term placenta [2]; arachidonic acid 0.2-10 μg/ml,no significant effect
same,effect on TxB2,human term placenta [2]; arachidonic acid 0.2-10 μg/ml,no significant effect
CCN(CC)CCCC(C)Nc1c2ccc(Cl)cc2nc2ccc(OC)cc12 (centres unmarked) [quinacrine],effect on PGFM release vs control,human term placenta [1],no significant effect
same,effect on TxB2 release vs control,human term placenta [1],no significant effect
same,effect on 6-keto-PGF1α release vs control,human term placenta [1],no significant effect
same,effect on PGE release vs control,human term placenta [1],no significant effect
same,effect on PGF release vs control,human term placenta [1]; first hour of exposure,significant inhibition
Insulin like growth factor-I [IGF-I],"cumulative release of the other hormones studied (PGE, PGFM, 6-keto-PGF1α, hCG) vs control",human term placenta [3]; IGF-I 10^−8 M,no significant change
same,effect on PGE release,human term placenta [3]; IGF-I 10^−8 M,not affected
same,effect on release of hCG compared to controls,human term placenta [3]; IGF-I 10^−8 M,did not affect
same,hCG release,human term placenta [3]; IGF-I 10^−8 M,55 % of the fifth-hour release
same,PGE release,human term placenta [3]; IGF-I 10^−8 M treated tissues,228 % of the fifth-hour release
same,cumulative release of TxB2 vs control,"human term placenta [3]; IGF-I 10^−8 M, P<0.01",significant reduction
same,cumulative release of PGF vs control,"human term placenta [3]; IGF-I 10^−8 M, P<0.05",significant reduction
same,TxB2 release,"human term placenta [3]; IGF-I 10^−8 M, by the fifth hour of treatment",85 % of the control's release
same,PGF release,"human term placenta [3]; IGF-I 10^−8 M, by the fifth hour of treatment, normalized to fifth-hour release",116%
same,6-keto-PGF1α release,"human term placenta [3]; IGF-I 10^−8 M, during the five hours",146 % of the fifth-hour release
same,effect on PGFM release,"human term placenta [3]; IGF-I 10^−8 M, five hours of perifusion",unchanged
same,time to significant inhibition of TxB2 release,"human term placenta [3]; IGF-I 10^−8 M, following treatment",≤ 150 min
same,effect on release of 6-keto-PGF1α,"human term placenta [3]; IGF-I 10^−8 M, more than five hours",not significantly altered
same,effect on release of PGF,"human term placenta [3]; IGF-I 10^−8 M, significant from the third hour",significantly (P<0.01) inhibited
same,effect on TxB2,human term placenta [4]; IGF-I 10 ng/ml,inhibited
same,effect on PGF production,human term placenta [4]; IGF-I 5-80 ng/ml,greatly reduced
same,greatest inhibition of TxB2 production,human term placenta [4]; IGF-I 10^−8 M,70 % of the basal release
same,effect on TxB2 production,"human term placenta [4]; IGF-I at each dose (5, 10, 20, 40 or 80 ng/ml)",statistically significant inhibition
same,effect on PGE,human term placenta [4]; high dose of IGF-I,small reduction
same,molar concentration producing a selective pharmacological affect on human placental tissue,human term placenta [4]; on the order of,~10^−9 molar
